Experiment [1] is described as follows: Inhibition of Candida glabrata DHFR. Also noted: species or system Nakaseomyces glabratus.
Experiment [2] concerns Nakaseomyces glabratus. Nature of the experiment: Binding affinity to Candida glabrata DHFR at 1 mM incubated for 2 hrs by crystallographic analysis in presence of 1 mM NADPH.
In experiment [3] the target is T1, Dihydrofolate reductase (Candida albicans) (UniProt P22906).
T1 sequence (whole entry): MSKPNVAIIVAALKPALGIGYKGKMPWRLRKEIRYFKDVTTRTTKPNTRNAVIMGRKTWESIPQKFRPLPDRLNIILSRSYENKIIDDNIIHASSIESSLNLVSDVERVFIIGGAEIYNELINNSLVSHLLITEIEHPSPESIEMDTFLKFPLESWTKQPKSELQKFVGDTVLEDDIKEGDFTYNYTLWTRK
Nature of the experiment: Binding affinity to Candida albicans DHFR at 1 mM incubated for 2 hrs by crystallographic analysis in presence of 1 mM NADPH.

The nature of experiment [4]: Selectivity ratio of IC50 for human DHFR to Candida glabrata DHFR.
Experiment [5] has as its target T2, Dihydrofolate reductase (Homo sapiens, UniProt P00374).
T2 sequence (P00374 whole entry): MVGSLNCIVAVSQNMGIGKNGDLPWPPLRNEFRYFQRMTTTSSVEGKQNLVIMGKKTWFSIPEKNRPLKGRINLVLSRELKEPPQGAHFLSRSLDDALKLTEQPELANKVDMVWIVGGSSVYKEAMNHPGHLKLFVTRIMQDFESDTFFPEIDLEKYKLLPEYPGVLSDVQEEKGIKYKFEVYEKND
The experiment can be described thus: Inhibition of human DHFR.

A short description of experiment [6]: Selectivity ratio of IC50 for human DHFR to Candida albicans DHFR.
In experiment [7] the target is T3, Dihydrofolate reductase (Candida albicans, UniProt P22906).
T3 sequence (P22906 whole entry): T1 sequence (whole entry)
The experiment can be described thus: Inhibition of Candida albicans DHFR.

The next experiment concerns Candida albicans. The experiment can be described thus: Antifungal activity against Candida albicans. The class given is functional.
In experiment [8] the test system is Nakaseomyces glabratus. Nature of the experiment: Antifungal activity against Candida glabrata. The format is functional.

Eleven compounds from ChEMBL document CHEMBL2331301, “Structural analysis of the active sites of dihydrofolate reductase from two species of Candida uncovers ligand-induced conformational changes shared among species” (Bioorg Med Chem Lett, 2013) can be followed below.

SMILES strings stand for the structures. Values after ≈ are worked out from the molar mass of the structure shown. Active and inactive are the calls of the source. The calls are words filed in the database; no cut-off is given here.

As a reminder, the IC50 is the concentration at which inhibition is half-maximal. A higher IC50 goes with a need for much substance. Compound `CCc1nc(N)nc(N)c1C#CCc1cc(OC)ccc1OC` showed an IC50 in experiment [1] of 8.2 nM.

In the case of `CCc1nc(N)nc(N)c1C#CCc1cc(OC)cc(-c2ccc3c(c2)OCCO3)c1`, the outcome (in the experiment with Nakaseomyces glabratus [2]; in [3]) was Active. For the same compound, the Ratio IC50 in experiment [4] was found to be 7.4; in experiment [6] it was 1.8. Further, the IC50 was found to be 140 nM on Dihydrofolate reductase [5], 19 nM in experiment [1] and 78 nM against Dihydrofolate reductase [7].

Regarding `COc1cc(C(C)C#Cc2c(C)nc(N)nc2N)cc(N2CCOCC2)c1` (configuration not stated), the Ratio IC50 in experiment [4] was determined as 20; in [6], 19. Besides, the IC50 in [1] was found to be 20 nM; against Dihydrofolate reductase [7], 21 nM.

Turning to `COc1cc(-c2ccncc2)cc(C(C)C#Cc2c(C)nc(N)nc2N)c1` (configuration not stated), the Ratio IC50 in experiment [4] was found to be 15; in experiment [6], 25. Moreover, the values for the IC50 (in experiment [1]; at Dihydrofolate reductase [7]) were 97 nM and 61 nM, respectively.

As to `CCc1nc(N)nc(N)c1C#CC(C)c1cc(OC)cc(-c2ccncc2)c1` (configuration not stated), the outcome (with Nakaseomyces glabratus [2]; in [3]) was Active. Also, the Ratio IC50 in experiment [4] is 15; in [6] it was 22. Further, the IC50 in experiment [1] is 89 nM; on Dihydrofolate reductase [7], 60 nM.

`CCc1nc(N)nc(N)c1C#CC(C)c1cc(OC)cc(-c2cccc3cnccc23)c1` (configuration not stated): the Ratio IC50 in experiment [4] was found to be 4.1; in experiment [6] it was 2.6. The figures for the IC50 (at Dihydrofolate reductase [5]; in [1]; on Dihydrofolate reductase [7]) were 45 nM, 11 nM and 17 nM, respectively.

With `CCc1nc(N)nc(N)c1C#CC(C)c1cc(OC)cc(-c2ccc3c(c2)OCCO3)c1` (configuration not stated), the Ratio IC50 was 14 in experiment [4] and 11 in experiment [6]. In addition, the IC50 against Dihydrofolate reductase [5] is 260 nM; in experiment [1], 18 nM; against Dihydrofolate reductase [7], 23 nM.

As for `CCc1nc(N)nc(N)c1C#CCc1cc(OC)cc(-c2cccc3cnccc23)c1`, the Ratio IC50 in experiment [4] turned out to be 3.8; in experiment [6], 0.84. Moreover, the IC50 against Dihydrofolate reductase [5] turned out to be 60 nM; in experiment [1] it was 16 nM; against Dihydrofolate reductase [7] it was 71 nM.

The MIC is the lowest concentration found to suppress growth. The low end stands for a more susceptible organism, the high end for a less susceptible organism. On to `COc1cc(-c2ccc(C)cc2)cc(C(C)C#Cc2c(C)nc(N)nc2N)c1` (configuration not stated), for which the result (in the experiment on Nakaseomyces glabratus [2]; in [3]) was Active. The compound further had an IC50 in experiment [1] of 0.6 nM. Besides, the MIC in the experiment with Candida albicans and in the experiment with Nakaseomyces glabratus [8] was 1.5 µg/mL (≈ 4.03 µM) throughout.

As to `COc1cc(C(C)(C)C#Cc2c(C)nc(N)nc2N)cc(OC)c1OC`, the Ratio IC50 in experiment [4] came to 26; in experiment [6], 9. The IC50 is 11 nM in [1] and 33 nM at Dihydrofolate reductase [7].

With `CCc1nc(N)nc(N)c1C#CC(C)c1cc(OC)cc(N2CCOCC2)c1` (configuration not stated), the outcome in the experiment on Nakaseomyces glabratus [2] was Active. Besides, the Ratio IC50 in experiment [4] and in experiment [6] was 11 in each case. Also, the concentration for half-maximal inhibition (IC50) against Dihydrofolate reductase [5] came to 250 nM; in experiment [1], 22 nM; on Dihydrofolate reductase [7], 23 nM.
